Literature values as cited in patent US20080247957A1, “Advanced drug delivery strategy and platform for minimally-invasive treatment of liver cancer” (Drexel University, priority 2007, published 2008).

Details: in the body

Q: With `O=c1[nH]cc(F)c(=O)[nH]1` [5 fluorouracil] as the molecule, how does the half life read?
A: less than 5 min
